Among the data in US10030016B2 (Sunesis Pharmaceuticals, Inc., priority 2009, dated 2018) are IC50 and EC50 values, retold here.

Where a name gives a salt, the structure may show the parent alone. Read-outs that look alike come from different tables or passages of the source. A value given as a limit tells only on which side of the number the result lay.

In one assay the target is PDK1 (Homo sapiens (Human), UniProt O15530). Briefly: PDK1 kinase assay (coupled PDK1/AKT/FAM-crosstide assay, IMAP fluorescence polarization). The format is biochemical. Put shortly: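 PDK1 activity is measured indirectly through activation of a PIFtide-fused AKT2 construct that phosphorylates FAM-crosstide (100 nM). The reaction uses 0.75 nM PDK1, 40 μM ATP, 30 min, 25° C, with IMAP polarization detection.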

Assay [1] relates to phospho-akt (Thr308) in PC-3 cells. Briefly: Inhibition of phospho-akt (Thr308) in PC-3 cells, MSD phospho-akt 308 ELISA kit. The format is cell-based. The following applies: Homo sapiens, 2 hours, no serum, read-out: EC50. In short, it runs like this:
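Electrochemiluminescent MSD ELISA of Thr308-phosphorylated Akt after a 2 h serum-free compound exposure of PC-3 cells (15,000/well, plated overnight). Controls: DMSO (high), 5 μM wortmannin (low). Lysate binding overnight at 4 °C; detection antibody 1 h at room temperature.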
For orientation: In an ELISA, binding on a coated surface is turned into a signal by an enzyme label.

Setting [2] is: inhibition of phospo-PDK1 in vitro.
Where [3] appears, read: inhibition of P308 Akt in PC-3 cells, MSD.
[4] abbreviates: inhibition of P308 Akt in PC-3 cells using MSD.

Sequence of PDK1 (O15530 51-359): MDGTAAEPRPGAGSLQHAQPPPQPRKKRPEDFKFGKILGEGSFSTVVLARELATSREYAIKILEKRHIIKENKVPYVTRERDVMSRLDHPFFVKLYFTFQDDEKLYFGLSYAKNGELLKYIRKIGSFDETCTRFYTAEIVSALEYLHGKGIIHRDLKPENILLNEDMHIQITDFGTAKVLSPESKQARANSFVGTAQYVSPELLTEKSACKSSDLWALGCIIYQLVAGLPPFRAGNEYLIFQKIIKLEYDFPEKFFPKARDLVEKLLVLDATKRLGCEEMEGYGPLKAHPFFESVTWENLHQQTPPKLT

Take `C[C@H](NC(=O)c1cn(C)nc1NCc1ccc(-c2ccc3ncnc(N)c3c2)s1)c1ccc(F)cc1` [Example 11.5, 3-({[5-(4-aminoquinazolin-6-yl)thiophen-2-yl]methyl}amino)-N-[(1S)-1-(4-fluorophenyl)ethyl]-1-methyl-1H-pyrazole-4-carboxamide]: the 50% inhibitory concentration (IC50) on PDK1 (setting [2]) is under 100 nM. Further, the EC50 in assay [1] (setting [3]) is 1000 to 10000 nM.

For `CCNS(=O)(=O)c1cnc(NCc2ccc(-c3ccc4ncnc(N)c4c3)s2)c(C(=O)NC)c1` [Example 8.6.16, 2-(((5-(4-aminoquinazolin-6-yl)thiophen-2-yl)methyl)amino)-5-(N-ethylsulfamoyl)-N-methylnicotinamide], the IC50 against PDK1 (setting [2]) is over 5000 nM. The EC50 in assay [1] (setting [3]) is over 10000 nM.

In turn, `COCCCn1cc(-c2ccc(CNc3ncc(C#N)nc3C(=O)N[C@@H](C)c3ccc(F)c(F)c3)cc2)c2c(N)ncnc21` [Example 317, (S)-3-(4-(4-amino-7-(3-methoxypropyl)-7H-pyrrolo[2,3-d]pyrimidin-5-yl)benzylamino)-6-cyano-N-(1-(3,4-difluoro-phenyl)ethyl)pyrazine-2-carboxamide] showed an IC50 against PDK1 (inhibition of PDK1 in vitro) of under 100 nM. The EC50 in assay [1] (setting [4]) is under 1000 nM.

For `C#CCNC(=O)c1cc(C(F)(F)F)cnc1NCc1ccc(-c2cnc3[nH]nc(N)c3c2)cc1` [Example 271, 2-(4-(3-amino-1H-pyrazolo [3,4-b]pyridin-5-yl)benzylamino)-N-(prop-2-ynyl)-5-(trifluoromethyl) nicotinamide], on PDK1 (inhibition of PDK1 in vitro), the IC50 lay within 100 to 1000 nM. The 50% effective concentration (EC50) in assay [1] (setting [4]) was in the range of 1000 to 10000 nM.

In the case of `Nc1ncnc2ccc(-c3ccc(CNc4ncsc4C(=O)NCc4ccc(F)c(F)c4)s3)cc12` [Ex. 12.1], on PDK1 (setting [2]), the IC50 was under 100 nM. Further, the EC50 in assay [1] (setting [3]) was over 10000 nM.

Turning to `CC(C)(N)COc1nc(-c2ccc(CNc3ncc(C(F)(F)F)cc3C(=O)Nc3ccc(F)cc3)cc2)cnc1N` [Example 200, 2-{4-[5-Amino-6-(2-amino-2-methyl-propoxy)-pyrazin-2-yl]-benzylamino}-N-(4-fluoro-phenyl)-5-trifluoromethyl-nicotinamide], the IC50 on PDK1 (inhibition of PDK1 in vitro) is under 100 nM. Besides, in assay [1] (setting [4]), the EC50 was 1000 to 10000 nM.

The compound `O=C(NCc1ccc(F)c(F)c1)c1cccnc1NCc1ccc(-c2c[nH]c3ncncc23)s1` [Example 4.7, 2-(((5-(7H-pyrrolo[2,3-d]pyrimidin-5-yl)thiophen-2-yl)methyl)amino)-N-(3,4-difluorobenzyl)nicotinamide] showed an IC50 against PDK1 (setting [2]) of 100 to 1000 nM. Besides, the EC50 in assay [1] (setting [3]) was in the range of 1000 to 10000 nM.

In turn, `Nc1ncnc2ccc(-c3ccc(CNc4ncccc4C(=O)N4CCc5ccccc5C4)s3)cc12` [Example 3.34, 2-({[5-(4-aminoquinazolin-6-yl)thiophen-2-yl]methyl}amino)-pyridin-3-yl](3,4-dihydroiso-quinolin-2(1H)-yl)methanone (TFA salt)] gave an IC50 against PDK1 (setting [2]) of over 5000 nM. The EC50 in assay [1] (setting [3]) lay within 1000 to 10000 nM.

Compound `CNC(=O)c1cc(S(=O)(=O)N2CCN(C)CC2)cnc1NCc1ccc(-c2ccc3ncnc(N)c3c2)s1` [Example 8.6.12, 2-(((5-(4-aminoquinazolin-6-yl)thiophen-2-yl)methyl)amino)-N-methyl-5-(4-methylpiperazin-1-ylsulfonyl)nicotinamide] came in with an IC50 at PDK1 (setting [2]) of over 5000 nM. Moreover, the EC50 in assay [1] (setting [3]) was over 10000 nM.

For the compound `Nc1ncnc2ccc(-c3ccc(CNc4ncc(C(=O)N5CCOCC5)cc4C(=O)NCc4ccc(F)c(F)c4)s3)cc12` [Example 7.24.6, 2-({[5-(4-aminoquinazolin-6-yl)thiophen-2-yl]methyl}amino)-N^3-(3,4-difluorobenzyl)-5-(morpholin-4-ylcarbonyl)pyridine-3-carboxamide], the IC50 against PDK1 (setting [2]) is under 100 nM. Moreover, the EC50 in assay [1] (setting [3]) lay in the range of 1000 to 10000 nM.

Compound `CCCNS(=O)(=O)c1cnc(NCc2ccc(-c3ccc4ncnc(N)c4c3)s2)c(C(=O)NCc2ccc(F)c(F)c2)c1` [Example 8.6.9, 2-(((5-(4-aminoquinazolin-6-yl)thiophen-2-yl)methyl)amino)-N-(3,4-difluorobenzyl)-5-(N-propylsulfamoyl) nicotinamide] returned an IC50 on PDK1 (setting [2]) of 100 to 1000 nM. Besides, the EC50 in assay [1] (setting [3]) was 1000 to 10000 nM.

In turn, `C[C@H](NC(=O)c1cc(C#N)cnc1NCc1ccc(-c2cnc(NCCO)cn2)cc1)c1ccc(F)cc1` [Example 227, 5-Cyano-N-[(S)-1-(4-fluoro-phenyl)-ethyl]-2-{4-[5-(2-hydroxy-ethylamino)-pyrazin-2-yl]-benzylamino}-nicotinamide] displayed an IC50 against PDK1 (inhibition of PDK1 in vitro) of 100 to 1000 nM. Besides, the EC50 in assay [1] (setting [4]) was in the range of 1000 to 10000 nM.

`C[C@H](NC(=O)c1nc(C#N)cnc1N[C@H](C)c1ccc(-c2cnc3[nH]nc(N)c3c2)cc1)c1ccc(F)c(F)c1` [Example 42, 3-((R)-1-(4-(3-amino-1H-pyrazolo[3,4-b]pyridin-5-yl)phenyl)ethylamino)-6-cyano-N—((S)-1-(3,4-difluorophenyl)ethyl)pyrazine-2-carboxamide] gave an IC50 against PDK1 (inhibition of PDK1 in vitro) of under 100 nM. In assay [1] (setting [4]), the EC50 is under 1000 nM.

As to `C[C@H](NC(=O)c1cc(C#N)cnc1NCc1ccc(-c2ccc(NCCN3CCOCC3)nc2)cc1)c1ccc(F)cc1` [Example 223, 5-Cyano-N-[(S)-1-(4-fluoro-phenyl)-ethyl]-2-{4-[6-(2-morpholin-4-yl-ethylamino)-pyridin-3-yl]-benzylamino}-nicotinamide], the IC50 against PDK1 (inhibition of PDK1 in vitro) is over 5000 nM. Besides, the EC50 in assay [1] (setting [4]) was over 10000 nM.

In turn, `C[C@H](NC(=O)c1nccnc1NCc1ccc(-c2ccc3ncnc(N)c3c2)s1)c1cccc(F)c1` [Example 3.69, 3-({[5-(4-aminoquinazolin-6-yl)thiophen-2-yl]methyl}amino)-N-[(1S)-1-(3-fluorophenyl)ethyl] pyrazine-2-carboxamide (TFA salt)] came in with an IC50 against PDK1 (setting [2]) of under 100 nM. In assay [1] (setting [3]), the EC50 lay in the range of 1000 to 10000 nM.

As for `C[C@H](NC(=O)c1cc(C#N)cnc1N[C@H](C)c1ccc(-c2cn(C)c3ncnc(N)c23)cc1)c1ccc(F)cc1` [Example 434, 2-{(R)-1-[4-(4-Amino-7-methyl-7H-pyrrolo[2,3-d]pyrimidin-5-yl)-phenyl]-ethylamino}-5-cyano-N-[(S)-1-(4-fluoro-phenyl)-ethyl]-nicotinamide], the IC50 against PDK1 (inhibition of PDK1 in vitro) is under 100 nM. In addition, the EC50 in assay [1] (setting [4]) was under 1000 nM.

In turn, `Nc1ncnc2ccc(-c3ccc(CNc4ncc(NC(=O)c5ccccc5)cc4C(=O)NCc4ccc(F)c(F)c4)s3)cc12` [Example 8.5.7, 2-({[5-(4-aminoquinazolin-6-yl)thiophen-2-yl]methyl}amino)-N-(3,4-difluorobenzyl)-5-[(phenylcarbonyl)amino] pyridine-3-carboxamide] registered an IC50 against PDK1 (setting [2]) of 100 to 1000 nM. Besides, the EC50 in assay [1] (setting [3]) is over 10000 nM.

For the compound `C[C@H](NC(=O)c1cc(C#N)cnc1NCc1ccc(-c2cnc(N)c(NCC(O)CO)n2)cc1)c1ccc(F)cc1` (stereo partly drawn) [Example 243, 2-{4-[5-Amino-6-(2,3-dihydroxy-propylamino)-pyrazin-2-yl]-benzylamino}-5-cyano-N-[(S)-1-(4-fluoro-phenyl)-ethyl]-nicotinamide], the IC50 against PDK1 (inhibition of PDK1 in vitro) is under 100 nM. Moreover, in assay [1] (setting [4]), the EC50 was under 1000 nM.

For `C[C@H](NC(=O)c1nc(C#N)cnc1NCc1ccc(-c2cnc(N)c(N3CCC[C@@H](N)C3)n2)cc1)c1ccc(F)c(F)c1` [Example 190, 3-{4-[5-Amino-6-((R)-3-amino-piperidin-1-yl)-pyrazin-2-yl]-benzylamino}-6-cyano-pyrazine-2-carboxylic acid [(S)-1-(3,4-difluoro-phenyl)-ethyl]-amide], the 50% inhibitory concentration (IC50) on PDK1 (inhibition of PDK1 in vitro) is under 100 nM. Further, the EC50 in assay [1] (setting [4]) was 1000 to 10000 nM.

At PDK1 (inhibition of PDK1 in vitro), `C[C@H](NC(=O)c1nc(C#N)cnc1NCc1ccc(-c2cnc(N)c(C(=O)N3CCNCC3)n2)cc1)c1ccc(F)c(F)c1` [Example 219, 3-{4-[5-Amino-6-(piperazine-1-carbonyl)-pyrazin-2-yl]-benzylamino}-6-cyano-pyrazine-2-carboxylic acid [(S)-1-(3,4-difluoro-phenyl)-ethyl]-amide] had an IC50 of under 100 nM. In addition, in assay [1] (setting [4]), the EC50 was 1000 to 10000 nM.

The compound `C[C@H](NC(=O)c1cc(C2=CCOC2)cnc1NCc1ccc(-c2cn(C)c3ncnc(N)c23)cc1)c1ccc(F)cc1` [Example 248, (S)-2-(4-(4-amino-7-methyl-7H-pyrrolo[2,3-d]pyrimidin-5-yl)benzylamino)-5-(2,5-dihydrofuran-3-yl)-N-(1-(4-fluorophenyl)ethyl) nicotinamide] yielded an IC50 on PDK1 (inhibition of PDK1 in vitro) of under 100 nM. In addition, the half-maximal effective concentration (EC50) in assay [1] (setting [4]) was under 1000 nM.

On PDK1 (setting [2]), `Nc1ncnc2ccc(-c3ccc(CNc4ncc(C5COC5)cc4C(=O)NCc4ccc(F)c(F)c4)s3)cc12` [Ex. 8.8.4, 2-((5-(4-aminoquinazolin-6-yl)thiophen-2-yl)methylamino)-N-(3,4-difluorobenzyl)-5-(oxetan-3-yl)nicotinamide] yielded an IC50 of under 100 nM. The EC50 in assay [1] (setting [3]) was under 1000 nM.

As for `Nc1n[nH]c2ncc(-c3ccc(CNc4ncc(C(F)(F)F)cc4C(=O)Nc4ccc(F)c(F)c4)cc3)cc12` [Example 263, 2-(4-(3-amino-1H-pyrazolo [3,4-b]pyridin-5-yl)benzylamino)-N-(3,4-difluorophenyl)-5-(trifluoromethyl) nicotinamide], the IC50 at PDK1 (inhibition of PDK1 in vitro) is under 100 nM. Further, the EC50 in assay [1] (setting [4]) was under 1000 nM.

Compound `O=C(NCc1ccc(F)c(F)c1)c1cccnc1NCc1ccc(-c2ccc3ncccc3c2)s1` [Example 4.5, N-(3,4-difluorobenzyl)-2-(((5-(quinolin-6-yl)thiophen-2-yl)methyl)amino)nicotinamide] yielded an IC50 on PDK1 (setting [2]) of under 100 nM. Also, the EC50 in assay [1] (setting [3]) is over 10000 nM.

Take `CN(Cc1ccc(F)c(F)c1)C(=O)c1nc(C#N)cnc1NCc1ccc(-c2cnc3[nH]nc(N)c3c2)cc1` [Example 413, 3-(4-(3-amino-1H-pyrazolo[3,4-b]pyridin-5-yl)benzylamino)-6-cyano-N-(3,4-difluorobenzyl)-N-methylpyrazine-2-carboxamide]: on PDK1 (inhibition of PDK1 in vitro), the IC50 is under 100 nM. The EC50 in assay [1] (setting [4]) was under 1000 nM.

The term IC50 denotes the point on the concentration scale where inhibition reaches its midpoint. As usually defined, the EC50 is the concentration needed to bring the measured effect to its halfway point.
